“And” between values parts separate entries of the source, which are not always exact repeats. Equal values may be shown once. Read-outs that look alike come from different tables or passages of the source.
How the values were obtained:
[1] = target: T1, SKG1 (Homo sapiens, UniProt O00141); parameters: method as in PMID 22387500; conditions: 10 µM inhibitor; cited from earlier work
T1 construct: purchased Reaction Biology Corp

[2] = target: T2, Aurora A (Homo sapiens, UniProt O14965); parameters: method as in PMID 22387500; conditions: 10 µM inhibitor; cited from earlier work
T2 construct: purchased Reaction Biology Corp
T2 sequence (O14965 1-403): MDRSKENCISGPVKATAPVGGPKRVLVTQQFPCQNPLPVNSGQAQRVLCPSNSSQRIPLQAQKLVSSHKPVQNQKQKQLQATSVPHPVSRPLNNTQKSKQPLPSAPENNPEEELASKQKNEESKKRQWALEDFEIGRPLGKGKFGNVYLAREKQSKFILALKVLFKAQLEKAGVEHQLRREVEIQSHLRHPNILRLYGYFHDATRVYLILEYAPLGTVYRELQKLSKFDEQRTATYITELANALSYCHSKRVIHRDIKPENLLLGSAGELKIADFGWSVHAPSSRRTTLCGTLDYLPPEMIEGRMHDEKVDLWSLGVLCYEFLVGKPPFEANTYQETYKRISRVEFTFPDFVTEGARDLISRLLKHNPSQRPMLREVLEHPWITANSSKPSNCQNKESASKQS

[3] = target: LCK (Homo sapiens, UniProt P06239); experiment: biochemical
Experimental: For this purpose 61 kinases from different representative subgroups (and CK2α and CK2α’) were tested. Testing was performed with inhibitor concentrations of 10 µM and an ATP concentration of 10 μM. The residual enzyme activity as obtained was set in relation to a control without inhibitor.

[4] = target: T3, surface displayed CK2α’ + CK2β (CK2α’ containing human CK2 holoenzyme) (Homo sapiens, UniProt P19784); experiment: whole-cell CK2 selectivity assay, holoenzyme surface displayed on E. coli; assay type: biochemical; conditions: for IC50: CK2α’ + CK2β displayed on E. coli, 600 µM ATP, 100 µM substrate peptide; for factor of stronger inhibition of CK2α’ containing holoenzyme in comparison to CK2α containing holoenzyme: whole-cell assay, not statistically significant
T3 construct: surface-display (autodisplay) carrier protein; made in house; host or cells: Escherichia coli BL21 (DE3), enzyme left on the cell surface
Description: We recently reported a whole cell CK2 activity assay, which can be used for testing the selectivity of compounds towards CK2α and CK2α’ [47]. It is based on the surface display of the human CK2 subunits, either α or α’ together with β on E. coli, were they are able to form a functional tetrameric holoenzymes, either ααββ or α’α’ββ, depending on which α isoform has been expressed. This technique was used to investigate whether 4a or 5 have preference to one of the two catalytic isoforms of CK2.
For this purpose, their IC50 were determined following the protocol of the recently described whole-cell CK2 selectivity assay. In summary, 78 µL of a bacterial suspension of Escherichia coli BL21 (DE3) either surface displaying CK2α + CK2β or CK2α’ + CK2β in kinase buffer (50 mM Tris/HCl, pH 8.5, 100 mM NaCl, 10 mM MgCl2 and 1 mM DTT) were supplemented with 2 µL of the test compound dissolved in DMSO and incubated at 37 °C and 400 rpm for 10 min. CK2 reactions were started by the addition of 120 µL of assay buffer (25 mM Tris/HCl, pH 7.5, 150 mM NaCl, 5 mM MgCl2, 1 mM DTT, 167 µM substrate peptide […] and 1 mM ATP) leading to a total reaction volume of 200 µL with final concentrations of 100 µM for the substrate peptide and 600 µM for ATP. […] After the samples were incubated for 120 min at 37 °C and 400 rpm, the CK2 presenting bacteria were removed by centrifugation (3850× g, 5 min, 4 °C). The obtained supernatants were transferred to the wells of a 96 well-microplate and finally supplemented with EDTA to a concentration of 12.5 mM to definitely stop the enzymatic reactions. The samples were then subjected to a Beckman Coulter pa800 plus (Krefeld, Germany) CE system and analyzed for phosphorylation of the substrate peptide. Samples containing pure DMSO served as controls for 0% inhibition and samples additionally lacking ATP served as controls for 100% inhibition. […] IC50 values were calculated from the resulting dose-response curves.
CK2α’ + CK2β (right column).
Mean values ± standard errors of
the means (SEM) are shown. […]

[5] = target: T4, human protein kinase CK2 holoenzyme (CK2α2β2) (Homo sapiens, UniProt P68400); experiment: CE-based CK2 inhibition assay (phosphorylation of substrate peptide […]); assay type: biochemical; conditions: for remaining activity at 10 µM: 10 µM compound, compared to activity without compound, read-out: residual enzymatic activity; for IC50: CK2 holoenzyme, 100 µM ATP, 13 concentrations 0.01 nM to 10 µM
T4 construct: made in house
Experimental: The phosporylation of an artificial substrate peptide ([…]) by the purified holoenzyme was analyzed in a capillary electrophoresis (CE) assay as described before. This peptide is commonly used for the determination of CK2 activity and phosphorylation was determined in the presence and in the absence of the compounds. For this purpose a stock solution of 10 mM in DMSO was prepared for each compound and diluted in the assay to a final concentration of 10 µM. […] Consequently 13 concentrations of both dibenzofurans, ranging from 0.01 nM to 10 µM were tested on their inhibition of CK2 dependent substrate phosphorylation in the presence of 100 μM ATP. […] This can be used to determine the so-called apparent Ki (Ki app) for different substrate (ATP) concentrations.
Human protein kinase CK2 holoenzyme was pre-incubated for 10 min with 13 different concentrations of each compounds ranging from 0.01 nM to 10 μM before the enzymatic activity was determined. […] The resulting inhibition in % was set into relation to the concentration of the corresponding compound in a logarithmic scale. For the calculation of the sigmoidal curve fitting the date GraphPad Prism (GraphPad, La Jolla, CA, USA) was used, as well as for the compound concentrations corresponding to 50% enzyme inhibition.
Phosphorylation of the substrate peptide […] by human protein kinase CK2 holoenzyme was determined in the CE assay at different ATP-concentrations (6, 30, 60, 150, 300, and 400 μM).
In order to determine the inhibition toward human protein kinase CK2 holoenzyme, the dibenzo[b,d]furan derivatives were subjected to the CE-based CK2 assay, as already described for other novel CK2 inhibitors before. In summary, 78 µL of kinase buffer (50 mM Tris/HCl, pH 7.5, 100 mM NaCl, 10 mM MgCl2 and 1 mM DTT) containing 0.25 µg CK2 holoenzyme were supplemented with 2 µL of the test-compound dissolved in DMSO and incubated at 37 °C for 10 min. After the addition of 120 µL of assay buffer (25 mM Tris/HCl, pH 8.5, 150 mM NaCl, 5 mM MgCl2, 1 mM DTT, 190 µM substrate peptide […] and 100 µM ATP) the CK2 reactions were carried out for 15 min at 37 °C, before they were stopped by ice cooling and the addition of 5 µL of EDTA (10 mM, pH 8.0). The samples were then analyzed for phosphorylation of the CK2 substrate peptide by capillary electrophoresis. […] Controls for 100% and 0% inhibition were realized by samples containing pure DMSO and samples additionally lacking the CK2 holoenzyme. IC50 were calculated from the obtained dose response curves.

[6] = Morrison equation, ATP 6–400 µM, best fit line extrapolated to ATP concentration = 0, read-out: apparent Ki (Ki app)

T4 sequence (P68400 whole entry): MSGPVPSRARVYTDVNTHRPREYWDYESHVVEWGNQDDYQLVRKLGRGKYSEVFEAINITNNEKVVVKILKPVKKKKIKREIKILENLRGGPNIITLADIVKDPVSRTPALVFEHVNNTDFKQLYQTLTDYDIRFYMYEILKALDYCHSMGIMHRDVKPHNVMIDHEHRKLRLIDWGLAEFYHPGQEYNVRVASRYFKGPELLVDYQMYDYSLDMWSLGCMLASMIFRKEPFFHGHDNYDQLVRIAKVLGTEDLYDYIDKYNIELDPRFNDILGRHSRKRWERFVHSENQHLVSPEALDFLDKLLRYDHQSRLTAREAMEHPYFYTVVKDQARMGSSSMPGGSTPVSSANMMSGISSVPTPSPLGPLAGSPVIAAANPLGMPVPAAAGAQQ
T4 sequence (P67870 whole entry partner): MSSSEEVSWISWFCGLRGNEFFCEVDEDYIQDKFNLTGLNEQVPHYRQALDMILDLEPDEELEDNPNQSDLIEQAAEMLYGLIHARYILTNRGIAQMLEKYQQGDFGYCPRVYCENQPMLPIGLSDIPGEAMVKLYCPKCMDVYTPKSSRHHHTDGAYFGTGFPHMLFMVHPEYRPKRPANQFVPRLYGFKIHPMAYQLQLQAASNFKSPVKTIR
T3 sequence (P19784 whole entry): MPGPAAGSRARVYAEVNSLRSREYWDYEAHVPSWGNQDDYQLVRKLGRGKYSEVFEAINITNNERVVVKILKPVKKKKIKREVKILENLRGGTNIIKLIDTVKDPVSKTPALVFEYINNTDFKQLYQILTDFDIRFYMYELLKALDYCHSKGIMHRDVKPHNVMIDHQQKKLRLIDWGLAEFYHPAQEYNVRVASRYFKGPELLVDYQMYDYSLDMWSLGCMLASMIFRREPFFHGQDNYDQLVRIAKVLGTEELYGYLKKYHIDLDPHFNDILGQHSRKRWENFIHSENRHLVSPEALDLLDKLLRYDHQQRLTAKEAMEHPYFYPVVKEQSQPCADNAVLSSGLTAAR
T3 sequence (P67870 whole entry partner): as the sequence (P67870 whole entry partner) above
T1 sequence (O00141 whole entry): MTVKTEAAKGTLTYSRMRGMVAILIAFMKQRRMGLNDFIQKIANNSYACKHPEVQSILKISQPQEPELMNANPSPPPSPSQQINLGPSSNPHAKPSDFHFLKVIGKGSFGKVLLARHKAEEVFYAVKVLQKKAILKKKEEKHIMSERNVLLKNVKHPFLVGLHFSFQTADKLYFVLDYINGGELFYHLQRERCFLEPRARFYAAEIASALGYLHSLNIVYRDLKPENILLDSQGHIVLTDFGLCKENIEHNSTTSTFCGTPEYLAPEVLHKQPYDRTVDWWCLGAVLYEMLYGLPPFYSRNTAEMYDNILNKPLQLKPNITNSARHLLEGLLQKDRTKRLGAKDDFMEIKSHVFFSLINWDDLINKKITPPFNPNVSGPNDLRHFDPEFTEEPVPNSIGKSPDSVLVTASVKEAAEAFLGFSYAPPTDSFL
Sequence of LCK (P06239 whole entry): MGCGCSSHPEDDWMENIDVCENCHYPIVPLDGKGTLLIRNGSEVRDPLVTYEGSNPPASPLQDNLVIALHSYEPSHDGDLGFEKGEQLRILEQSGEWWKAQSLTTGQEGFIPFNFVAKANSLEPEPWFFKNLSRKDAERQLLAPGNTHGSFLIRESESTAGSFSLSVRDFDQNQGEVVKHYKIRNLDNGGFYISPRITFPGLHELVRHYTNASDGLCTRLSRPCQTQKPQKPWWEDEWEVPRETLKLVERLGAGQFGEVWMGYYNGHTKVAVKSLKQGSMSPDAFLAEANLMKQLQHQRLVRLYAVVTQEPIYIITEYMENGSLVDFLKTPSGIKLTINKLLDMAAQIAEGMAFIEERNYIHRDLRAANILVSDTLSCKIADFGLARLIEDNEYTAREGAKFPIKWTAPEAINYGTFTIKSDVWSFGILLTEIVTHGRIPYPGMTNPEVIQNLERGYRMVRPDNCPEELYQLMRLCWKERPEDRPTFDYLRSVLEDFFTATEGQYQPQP

inhibition at 10 µM [3] [%] | IC50 [4] [nM] | factor of stronger inhibition of CK2α’ containing holoenzyme in comparison to CK2α containing holoenzyme [4] | remaining activity at 10 µM [5] [%] | IC50 [5] | Ki [5, 6] | Ki ([5]; repeated with double the amount of the enzyme CK2, different ATP concentrations, read-out: Ki app) [nM] | Compound | kinase inhibited more than 70% at 10 µM concentration [1] | kinase inhibited more than 70% at 10 µM concentration [2]
 |  |  |  |  |  |  | Cc1ccc(NC=C2C(=O)CCc3c2oc2c(Cl)c(Cl)c(O)cc32)cc1 [4b, 6,7-dichloro-1,4-dihydro-8-hydroxy-4-[(4-methylphenylamino)methylene]dibenzo[b,d]furan-3(2H)-one] | SKG1 | Aurora A
68 | 73 | 1.5 | < 1 | 5 nM and 7 nM | 0.46 nM and 0.4 nM |  | COc1ccc(/N=C/c2c(O)ccc3c2oc2cc(Cl)c(O)c(Cl)c23)cc1 [compound 5, (E)-1,3-dichloro-6-[(4-methoxyphenylimino)methyl]dibenzo[b,d]furan-2,7-diol] |  | 
 | 43 | 1.5 | < 1 | 7 nM and 5 nM | 0.41 nM and 0.4 nM | ~4 | COc1ccc(N/C=C2\C(=O)CCc3c2oc2cc(Cl)c(O)c(Cl)c32)cc1 [4a, 7,9-dichloro-1,2-dihydro-8-hydroxy-4-[(4-methoxyphenylamino)methylene]dibenzo[b,d]furan-3(2H)-one] |  | 
